What all share (format): cell-based, human
The test system of one data set is MB-231. Kind of data set: SRB colorimetric assay of cell growth and viability, MB-231. To be noted: for TGI (total growth inhibition): MB-231 cells, 48 hours exposure; for GI50: read-out: GI50 (growth inhibition at 50%), MB-231 cells, 48 hours exposure; for CC50: read-out: LC50 (lethal concentration at 50%), MB-231 cells, 48 hours exposure. The source says:
The finality of this assay is to interrupt the growth of a “in vitro” tumor cell culture by means a continued exhibition of the cells to the sample to be testing.
A colorimetric type of assay, using sulforhodamine B (SRB) reaction has been adapted for a quantitative measurement of cell growth and viability [following the technique described by Philip Skehan, et al. (1990), New colorimetric cytotoxicity assay for anticancer drug screening, J. Natl. Cancer Inst., 82:1107-1112].
This form of the assay employs 96 well cell culture microplates of 9 mm diameter (Faircloth, 1988; Mosmann, 1983). Most of the cell lines are obtained from American Type Culture Collection (ATCC) derived from different human cancer types.
Cells are maintained in RPMI 1640 10% FBS, supplemented with 0.1 g/l penicillin and 0.1 g/l streptomycin sulfate and then incubated at 37° C., 5% CO2 and 98% humidity. For the experiments, cells were harvested from subconfluent cultures using trypsin and resuspended in fresh medium before plating.
Cells are seeded in 96 well microtiter plates, at 5×10^3 cells per well in aliquots of 195 μL medium, and they are allowed to attach to the plate surface by growing in drug free medium for 18 hours. Afterward, samples are added in aliquots of 5 μL in a ranging from 10 to 10^−8 μg/mL, dissolved in DMSO:EtOH:PBS (0.5:0.5:99). After 48 hours exposure, the antitumor effect are measured by the SRB methodology: cells are fixed by adding 50 μL of cold 50% (wt/vol) trichloroacetic acid (TCA) and incubating for 60 minutes at 4° C. Plates are washed with deionized water and dried. One hundred μL of SRB solution (0.4% wt/vol in 1% acetic acid) is added to each microtiter well and incubated for 10 minutes at room temperature. Unbound SRB is removed by washing with 1% acetic acid. Plates are air dried and bound stain is solubilized with Tris buffer. Optical densities are read on a automated spectrophotometric plate reader at a single wavelength of 490 nm.
The values for mean+/− SD of data from triplicate wells are calculated. Some parameters for cellular responses can be calculated: GI=growth inhibition, TGI=total growth inhibition (cytostatic effect) and LC=cell killing (cytotoxic effect).
On the technique in general: In SRB staining, fixed cells bind dye roughly in proportion to their protein.

The next data set has as its system HT-29. Kind of data set: SRB colorimetric assay of cell growth and viability, HT-29. To be noted: HT-29 cells, 48 hours exposure, SRB; for GI50: read-out: GI50 (growth inhibition at 50%); for CC50: read-out: LC50 (lethal concentration at 50%).
Another data set concerns A-549. In words: SRB colorimetric assay of cell growth and viability, A-549. The note with it: A-549 cells, 48 hours exposure, SRB; for GI50: read-out: GI50 (growth inhibition at 50%); for CC50: read-out: LC50 (lethal concentration at 50%).

Where a SMILES comes first, the peptide text is derived from it. Bridges are numbered along the chain shown (N, C = ends). [ ]: non-standard residue; d: D form. The star is where a group is joined. d(aIle) = CC[C@H](C)[C@@H](N)C(=O)O; d(aThr) = C[C@@H](O)[C@@H](N)C(=O)O; Hexanoyl(5-Me) = CC(C)CCCC(=O)*; d(hCys) = N[C@H](CCS)C(=O)O; Orn = NCCC[C@H](N)C(=O)O; Dhb = C/C=C(\N)C(=O)O

With `C/C=C1\NC(=O)[C@H](Cc2ccccc2)NC(=O)[C@@H](C(C)C)NC(=O)[C@@H]([C@@H](C)CC)NC(=O)[C@H](NC(=O)[C@H](NC(=O)[C@@H](CCCN)NC(=O)[C@@H]2CCCN2C(=O)[C@H](NC(=O)[C@@H](NC(=O)[C@@H](NC(=O)[C@H](NC(=O)CCCC(C)C)C(C)C)[C@@H](C)O)C(C)C)C(C)C)[C@@H](C)CC)[C@@H](C)OC(=O)[C@H](C(C)C)NC1=O` [Compound 106, [D-Orn^8, L-Pro^9]-KF], in the data set with MB-231, the “TGI (total growth inhibition)” value was found to be 6.77E−06 Molar, the GI50 (usually the concentration at which growth is held to half of that of the control) is no less than 6.77 µM and the CC50 was no less than 6.77 µM. In the data set on HT-29, the “TGI (total growth inhibition)” value turned out to be 6.77E−06 Molar, the GI50 came to 6.77 µM and the CC50 came out at 6.77 µM. In the data set with A-549, the “TGI (total growth inhibition)” value is on record as 6.77E−06 Molar, the GI50 stood at 6.77 µM and the CC50 was 6.77 µM.

Take `C/C=C1\NC(=O)[C@H](Cc2ccccc2)NC(=O)[C@@H](C(C)C)NC(=O)[C@@H]([C@@H](C)CC)NC(=O)[C@H](NC(=O)[C@@H](CS)NC(=O)[C@H](CCCN)NC(=O)[C@H]2CCCN2C(=O)[C@H](NC(=O)[C@H](CS)NC(=O)[C@@H](NC(=O)[C@H](NC(=O)CCCC(C)C)C(C)C)[C@@H](C)O)C(C)C)[C@@H](C)OC(=O)[C@H](C(C)C)NC1=O` [Compound 107, [D-Cys^7, L-Cys^11]-KF] ({Hexanoyl(5-Me)}-[dV]TC[dV][dP][Orn][dC][d(aThr)][d(aIle)][dV]F[Dhb]V; ester 8-C): in the data set on MB-231, the “TGI (total growth inhibition)” value was determined as 6.80E−06 Molar. For the same molecule, in the data set with HT-29, the “TGI (total growth inhibition)” value is given as 6.80E−06 Molar, the GI50 was 6.8 µM and the CC50 was found to be 6.8 µM. In the data set on A-549, the “TGI (total growth inhibition)” value was 6.80E−06 Molar, the GI50 came to 6.8 µM and the CC50 came to 6.8 µM.

On to `C/C=C1\NC(=O)[C@H](Cc2ccccc2)NC(=O)[C@@H](C(C)C)NC(=O)[C@@H]([C@@H](C)CC)NC(=O)[C@H](NC(=O)[C@@H](CS)NC(=O)[C@H](CCCN)NC(=O)[C@H]2CCCN2C(=O)[C@@H](CS)NC(=O)[C@@H](NC(=O)[C@@H](NC(=O)[C@H](NC(=O)CCCC(C)C)C(C)C)[C@@H](C)O)C(C)C)[C@@H](C)OC(=O)[C@H](C(C)C)NC1=O` [Compound 108, [D-Cys^7, D-Cys^10]-KF] ({Hexanoyl(5-Me)}-[dV]TV[dC][dP][Orn][dC][d(aThr)][d(aIle)][dV]F[Dhb]V; ester 8-C), for which the “TGI (total growth inhibition)” value in the data set with MB-231 is 6.53E−06. Molar. In the data set with HT-29, the “TGI (total growth inhibition)” value is 6.53E−06. Molar, the GI50 stood at 6.53 µM and the CC50 worked out at 6.53 µM. In addition, in the data set with A-549, the “TGI (total growth inhibition)” value was 6.53E−06. Molar, the GI50 turned out to be 6.53 µM and the CC50 was determined as 6.53 µM.

In the case of `C/C=C1\NC(=O)[C@H](Cc2ccccc2)NC(=O)[C@@H](C(C)C)NC(=O)[C@@H]([C@@H](C)CC)NC(=O)[C@H](NC(=O)[C@@H](CCS)NC(=O)[C@H](CCCN)NC(=O)[C@H]2CCCN2C(=O)[C@@H](CCS)NC(=O)[C@@H](NC(=O)[C@@H](NC(=O)[C@H](NC(=O)CCCC(C)C)C(C)C)[C@@H](C)O)C(C)C)[C@@H](C)OC(=O)[C@H](C(C)C)NC1=O` [Compound 109, [D-homoCys^7, D-homoCys^10]-KF] ({Hexanoyl(5-Me)}-[dV]TV[d(hCys)][dP][Orn][d(hCys)][d(aThr)][d(aIle)][dV]F[Dhb]V; ester 8-C), in the data set with MB-231, the “TGI (total growth inhibition)” value is reported as 6.26E−06 Molar. Also, in the data set on HT-29, the “TGI (total growth inhibition)” value is listed as 6.26E−06 Molar, the 50% growth inhibitory concentration (GI50) was determined as 6.26 µM and the CC50 was determined as 6.26 µM. In the data set on A-549, the “TGI (total growth inhibition)” value turned out to be 6.26E−06 Molar, the 50% growth inhibitory concentration (GI50) was 6.26 µM and the CC50 was 6.26 µM.

With `C/C=C1\NC(=O)[C@H](Cc2ccccc2)NC(=O)[C@@H](C(C)C)NC(=O)[C@@H]([C@@H](C)CC)NC(=O)[C@H](NC(=O)[C@H](NC(=O)[C@H](CCCN)NC(=O)[C@H]2CCCN2C(=O)[C@H](NC(=O)[C@@H](NC(=O)[C@@H](NC(=O)[C@H](NC(=O)CCCC(C)C)C(C)C)[C@@H](C)O)C(C)C)C(C)C)[C@@H](C)CC)[C@@H](C)OC(=O)[C@@H](C(C)C)NC1=O` [Compound 110, [D-Val^1]-KF], in the data set with MB-231, the “TGI (total growth inhibition)” value worked out at 3.71E−06 Molar, the GI50 is 3.2 µM and the CC50 is 6.28 µM. In addition, in the data set on HT-29, the “TGI (total growth inhibition)” value is given as 5.15E−07 Molar, the 50% growth inhibitory concentration (GI50) is 0.408 µM and the CC50 is 0.691 µM. Further, in the data set on A-549, the “TGI (total growth inhibition)” value turned out to be 1.13E−06 Molar, the GI50 is 0.879 µM and the CC50 amounted to 1.63 µM.

Source of the values: patent publication US20070117743A1, “New antitumoral compounds” (priority 2003, published 2007).
